Results as given in PubChem BioAssay (NCI).
Several values for one entry are separate records, joined by “and”; a condition that tells them apart may be missing. Equal entries are not always repeated.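 Step 1: Grow cells in 96-well plates. Step 2: Expose to compound for 48 hours at 5 concentrations. Step 3: Interpolate endpoints linearly; if unreached, use highest concentration. GI50 is the concentration that inhibits growth by half. TGI marks complete inhibition of growth.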

Columns and labels:
Experiment in all cases: NCI-60 cell line screen, 48 h
[1] = tested on: 786-0 renal
[2] = tested on: NCI-H23 lung
[3] = tested on: NCI-H226 lung
[4] = tested on: HCT-116 colon
[5] = tested on: SK-MEL-2 melanoma
[6] = tested on: NCI-H522 lung
[7] = tested on: K-562 leukemia
[8] = tested on: MALME-3M melanoma
[9] = tested on: CCRF-CEM leukemia
[10] = tested on: MDA-MB-231 breast
[11] = tested on: SN12C renal
[12] = tested on: CAKI-1 renal
[13] = tested on: MDA-MB-435
[14] = tested on: OVCAR-5 ovarian
[15] = tested on: LOX IMVI melanoma
[16] = tested on: NCI-H460 lung
[17] = tested on: HCT-15 colon
[18] = tested on: OVCAR-8 ovarian
[19] = tested on: UACC-257 melanoma
[20] = tested on: DU-145 prostate
[21] = tested on: HS 578T breast
[22] = tested on: A498 renal
[23] = tested on: COLO 205 colon
[24] = tested on: MDA-N
[25] = tested on: SK-MEL-28 melanoma
[26] = tested on: HL-60(TB) leukemia
[27] = tested on: SF-295 CNS
[28] = tested on: SR leukemia
[29] = tested on: NCI/ADR-RES ovarian
[30] = tested on: SK-OV-3 ovarian
[31] = tested on: BT-549 breast
[32] = tested on: SNB-75 CNS
[33] = tested on: U251 CNS
[34] = tested on: RXF 393 renal
[35] = tested on: MOLT-4 leukemia
[36] = tested on: ACHN renal
[37] = tested on: OVCAR-4 ovarian
[38] = tested on: OVCAR-3 ovarian
[39] = tested on: SNB-19 CNS
[40] = tested on: HCC-2998 colon
[41] = tested on: SW-620 colon
[42] = tested on: UACC-62 melanoma
[43] = tested on: T-47D breast
[44] = tested on: HOP-92 NSCLC
[45] = tested on: RPMI-8226 leukemia
[46] = tested on: HOP-62 NSCLC
[47] = tested on: M14 melanoma
[48] = tested on: TK-10 renal
[49] = tested on: PC-3 prostate
[50] = tested on: SF-539 CNS
[51] = tested on: KM12 colon
[52] = tested on: UO-31 renal
[53] = tested on: HT29 colon
[54] = tested on: MCF7 breast
[55] = tested on: SK-MEL-5 melanoma
[56] = tested on: EKVX NSCLC
[57] = tested on: IGROV1 ovarian
[58] = tested on: SF-268 CNS
[59] = tested on: SNB-78 CNS
[60] = tested on: KM20L2 colon
[61] = tested on: A549 NSCLC
[62] = tested on: LXFL 529 NSCLC
[63] = tested on: XF 498 CNS
[64] = tested on: M19-MEL melanoma
[65] = tested on: DLD-1 colon
[66] = tested on: DMS 273 small cell lung
[67] = tested on: DMS 114 small cell lung

Compound: CC[C@@]1(O)C[C@H](OC2CC(N(C)C)C(O)C(C)O2)c2c(O)c3c(c(O)c2[C@H]1OC1CC(N(C)C)C(O)C(C)O1)C(=O)c1cccc(O)c1C3=O (stereo partly specified)
- GI50 [1]: < 10 nM
- GI50 [2]: < 10 nM
- GI50 [3]: < 10 nM
- GI50 [4]: < 10 nM
- GI50 [5]: < 10 nM
- TGI [5]: 56.8 nM and < 10 nM
- GI50 [6]: < 10 nM
- TGI [6]: 85.7 nM and < 10 nM
- GI50 [7]: < 10 nM
- GI50 [8]: < 10 nM
- GI50 [9]: < 10 nM
- TGI [9]: 204 nM
- GI50 [10]: < 10 nM
- GI50 [11]: < 10 nM
- TGI [11]: 1040 nM
- TGI [12]: 54.5 nM
- GI50 [13]: < 10 nM
- TGI [13]: 123 nM and 18.7 nM
- GI50 [14]: < 10 nM
- TGI [15]: 92.3 nM
- GI50 [16]: < 10 nM
- TGI [16]: 304 nM and 662 nM
- GI50 [17]: 23.8 nM
- TGI [17]: 971 nM and 1290 nM
- GI50 [18]: < 10 nM
- TGI [18]: 400 nM and 1100 nM
- GI50 [19]: < 10 nM
- GI50 [20]: < 10 nM
- TGI [20]: 11300 nM
- GI50 [21]: < 10 nM
- TGI [21]: 388 nM and 72.4 nM
- GI50 [22]: < 10 nM
- GI50 [23]: < 10 nM
- TGI [23]: 149 nM and 29.7 nM
- GI50 [24]: < 10 nM
- TGI [24]: 156 nM and 113 nM
- GI50 [25]: < 10 nM
- TGI [25]: 135 nM and 40.5 nM
- GI50 [26]: 10.2 nM
- GI50 [27]: < 10 nM
- GI50 [28]: < 10 nM
- TGI [28]: 27.3 nM
- GI50 [29]: < 10 nM
- TGI [29]: 842 nM and 334 nM
- GI50 [30]: < 10 nM
- TGI [30]: 375 nM and 64.3 nM
- GI50 [31]: < 10 nM
- TGI [31]: 293 nM and 102 nM
- GI50 [32]: < 10 nM
- GI50 [33]: < 10 nM
- GI50 [34]: < 10 nM
- TGI [34]: 64.3 nM and < 10 nM
- GI50 [35]: < 10 nM
- TGI [35]: 57.3 nM
- GI50 [36]: 30 nM and < 10 nM
- TGI [36]: < 10 nM
- GI50 [37]: < 10 nM
- TGI [37]: 601 nM and 147 nM
- GI50 [38]: < 10 nM
- TGI [38]: < 10 nM
- GI50 [39]: < 10 nM
- TGI [39]: 11100 nM
- GI50 [40]: < 10 nM
- TGI [40]: 75.9 nM and 21.6 nM
- GI50 [41]: < 10 nM
- TGI [41]: 14.9 nM
- GI50 [42]: < 10 nM
- TGI [42]: 71.1 nM and < 10 nM
- GI50 [43]: < 10 nM
- TGI [43]: 37.9 nM
- GI50 [44]: < 10 nM
- GI50 [45]: < 10 nM
- TGI [45]: 581 nM and 91.9 nM
- GI50 [46]: < 10 nM
- TGI [46]: 192 nM
- GI50 [47]: < 10 nM
- GI50 [48]: < 10 nM
- GI50 [49]: < 10 nM
- GI50 [50]: < 10 nM
- TGI [50]: 212 nM and 183 nM
- GI50 [51]: < 10 nM
- GI50 [52]: < 10 nM
- GI50 [53]: < 10 nM
- TGI [53]: 353 nM and 109 nM
- GI50 [54]: < 10 nM
- TGI [54]: 381 nM and 74.3 nM
- GI50 [55]: < 10 nM
- GI50 [56]: < 10 nM
- TGI [56]: 538 nM and 167 nM
- GI50 [57]: < 10 nM
- TGI [57]: 2940 nM
- GI50 [58]: < 10 nM

Compound: CC(=O)NC1=C(NCCC(C)C)C(=O)c2ccccc2C1=O
- TGI [1]: > 50000 nM
- TGI [2]: > 50000 nM
- TGI [3]: > 50000 nM
- TGI [4]: > 50000 nM
- TGI [5]: > 50000 nM
- TGI [59]: > 50000 nM
- TGI [6]: > 50000 nM
- TGI [7]: > 50000 nM
- TGI [8]: > 50000 nM
- TGI [9]: > 50000 nM
- TGI [60]: > 50000 nM
- TGI [11]: > 50000 nM
- TGI [61]: > 50000 nM
- TGI [62]: > 50000 nM
- TGI [15]: > 50000 nM
- TGI [16]: > 50000 nM
- TGI [63]: > 50000 nM
- TGI [17]: > 50000 nM
- TGI [18]: > 50000 nM
- TGI [19]: > 50000 nM
- TGI [23]: > 50000 nM
- TGI [25]: > 50000 nM
- TGI [26]: > 50000 nM
- TGI [27]: > 50000 nM
- TGI [28]: > 50000 nM
- TGI [30]: > 50000 nM
- TGI [32]: > 50000 nM
- TGI [33]: > 50000 nM
- TGI [34]: > 50000 nM
- TGI [35]: > 50000 nM
- TGI [36]: > 50000 nM
- TGI [37]: > 50000 nM
- TGI [38]: > 50000 nM
- TGI [64]: > 50000 nM
- TGI [39]: > 50000 nM
- TGI [40]: > 50000 nM
- TGI [41]: > 50000 nM
- TGI [42]: > 50000 nM
- TGI [44]: > 50000 nM
- TGI [65]: > 50000 nM
- TGI [46]: > 50000 nM
- TGI [47]: > 50000 nM
- TGI [48]: > 50000 nM
- TGI [50]: > 50000 nM
- TGI [51]: > 50000 nM
- TGI [66]: > 50000 nM
- TGI [52]: > 50000 nM
- TGI [53]: > 50000 nM
- TGI [55]: > 50000 nM
- TGI [56]: > 50000 nM
- TGI [57]: > 50000 nM
- TGI [58]: > 50000 nM

Compound: CN/N=C(/Cc1occc(=O)c1O)C(=O)Nc1ccccc1C
- TGI [1]: > 100000 nM
- TGI [2]: > 100000 nM
- TGI [3]: > 100000 nM
- TGI [4]: > 100000 nM
- TGI [5]: > 100000 nM
- TGI [59]: > 100000 nM
- TGI [6]: > 100000 nM
- TGI [7]: > 100000 nM
- TGI [8]: > 100000 nM
- TGI [9]: > 100000 nM
- TGI [60]: > 100000 nM
- TGI [11]: > 100000 nM
- TGI [12]: > 100000 nM
- TGI [61]: > 100000 nM
- TGI [14]: > 100000 nM
- TGI [62]: > 100000 nM
- TGI [15]: > 100000 nM
- TGI [16]: > 100000 nM
- TGI [17]: > 100000 nM
- TGI [18]: > 100000 nM
- TGI [19]: > 100000 nM
- TGI [22]: > 100000 nM
- TGI [23]: > 100000 nM
- TGI [25]: > 100000 nM
- TGI [26]: > 100000 nM
- TGI [27]: > 100000 nM
- TGI [28]: > 100000 nM
- TGI [30]: > 100000 nM
- TGI [33]: > 100000 nM
- TGI [35]: > 100000 nM
- TGI [36]: > 100000 nM
- TGI [67]: > 100000 nM
- TGI [37]: > 100000 nM
- TGI [38]: > 100000 nM
- TGI [64]: > 100000 nM
- TGI [39]: > 100000 nM
- TGI [40]: > 100000 nM
- TGI [41]: > 100000 nM
- TGI [42]: > 100000 nM
- TGI [44]: > 100000 nM
- TGI [45]: > 100000 nM
- TGI [46]: > 100000 nM
- TGI [47]: > 100000 nM
- TGI [48]: > 100000 nM
- TGI [50]: > 100000 nM
- TGI [51]: > 100000 nM
- TGI [52]: > 100000 nM
- TGI [53]: > 100000 nM
- TGI [55]: > 100000 nM
- TGI [56]: > 100000 nM
- TGI [57]: > 100000 nM
- TGI [58]: > 100000 nM
